Measured values from PubChem BioAssay (NCI).
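Tested at 5 concentrations; 48 h exposure; 96-well plates; endpoints linearly interpolated, else capped at highest concentration. GI50 = concentration required for 50% inhibition of growth. Definition used: TGI = concentration required for complete inhibition of growth.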

Key:
Assay in all cases: growth of human tumour cells (NCI), 48 h
K-562 leukemia = system: K-562 leukemia
UACC-62 melanoma = system: UACC-62 melanoma
U251 CNS = system: U251 CNS
786-0 renal = system: 786-0 renal
HCT-116 colon = system: HCT-116 colon
DU-145 prostate = system: DU-145 prostate
HL-60(TB) leukemia = system: HL-60(TB) leukemia
CAKI-1 renal = system: CAKI-1 renal
HCT-15 colon = system: HCT-15 colon
NCI-H522 lung = system: NCI-H522 lung

SMILES	GI50 (K-562 leukemia) [µM]	TGI (K-562 leukemia) [µM]	GI50 (UACC-62 melanoma) [µM]	TGI (UACC-62 melanoma) [µM]	GI50 (U251 CNS) [µM]	TGI (U251 CNS) [µM]	GI50 (786-0 renal) [µM]	TGI (786-0 renal) [µM]	GI50 (HCT-116 colon) [µM]	TGI (HCT-116 colon) [µM]	GI50 (DU-145 prostate) [µM]	TGI (DU-145 prostate) [µM]	GI50 (HL-60(TB) leukemia) [µM]	TGI (HL-60(TB) leukemia) [µM]	GI50 (CAKI-1 renal) [µM]	TGI (CAKI-1 renal) [µM]	GI50 (HCT-15 colon) [µM]	TGI (HCT-15 colon) [µM]	TGI (NCI-H522 lung) [µM]	GI50 (NCI-H522 lung) [µM]
Nc1ncc(-c2cnn(C3CCNCC3)c2)cc1-c1nc2cc(Cl)ccc2o1	0.218	0.444	1.96	3.65	1.38	2.73	1.71	3.16	0.851	2.13	1.63	3.08	1.56	3.2	1.58	3.09	0.495	1.71	–	–
Cc1ccc(S(=O)(=O)OC2CC=CC2)cc1	–	> 100	–	> 100	–	> 100	–	> 100	–	> 100	–	–	–	> 100	–	> 100	–	> 100	–	–
O=C1N/C(=C\[N+](=O)[O-])c2ccccc21	–	> 100	–	> 100	–	> 100	–	> 100	–	> 100	–	–	–	> 100	–	–	–	> 100	> 100	–
CC1(O)C(C)(O)C2(C)O[Te]3(OC12C)OC1(C)C(C)(O)C(C)(O)C1(C)O3 (stereo unspecified)	–	39	–	> 100	–	23.8	–	> 100	–	–	–	–	–	31.5	–	–	–	34.4	42.2	–
CCOC(=O)[CH-]C(=O)C12CC3CC(CC(C3)C1)C2.CCOC(=O)[CH-]C(=O)C12CC3CC(CC(C3)C1)C2.CC[O-].CC[O-].[Ti+4]	> 100	> 100	> 100	> 100	> 100	> 100	> 100	> 100	> 100	> 100	–	–	> 100	> 100	> 100	> 100	–	–	> 100	> 100
O=C(Nc1ccc(Cl)cc1)C1C(=O)C(=O)N(c2ccc(Cl)cc2)C1=O (stereo unspecified)	–	> 100	–	> 100	–	> 100	–	> 100	–	> 100	–	–	–	> 100	–	> 100	–	> 100	> 100	–
C=C1c2c(C)nn(-c3ccc(C#CCOC4OC(CO)C(O)C(O)C4O)cc3)c2N(C)C23C[C@H]1C1(C)c4c(C)nn(-c5ccc(C#CCOC6OC(CO)C(O)C(O)C6O)cc5)c4N(C)C(C)(C[C@H]12)C3 (stereo partly specified)	1.89	6.75	1.22	2.86	1.19	2.59	2.66	7.78	–	–	1.97	5.16	2.07	4.43	2.81	11.6	–	–	3.26	1.67
C=CC[P@]1(=O)O[C@H](c2ccccc2)[C@H](C)N1C	–	> 100	–	> 100	–	> 100	–	> 100	–	–	–	–	–	> 100	–	–	–	> 100	–	–
CCCCCCCCCCCCCP(=O)(O)O	–	–	–	> 100	–	> 100	–	> 100	–	> 100	–	–	–	> 100	–	–	–	> 100	> 100	–
O=C(O)CCCc1ccc2ccc3ccccc3c2c1	–	> 100	–	> 100	–	> 100	–	> 100	–	> 100	–	> 100	–	–	–	> 100	–	> 100	> 100	–
COc1ccc(C=O)cc1O[Si](C)(C)C(C)(C)C	–	> 100	–	> 100	–	> 100	–	> 100	–	> 100	–	–	–	> 100	–	> 100	–	> 100	–	–
N#CCC(=O)N/N=C1/C(=O)N(c2ccc(Cl)cc2)C(=O)C(=O)C1c1nc2ccccc2s1 (stereo unspecified)	–	–	–	> 100	–	> 100	–	> 100	–	> 100	–	–	–	–	–	> 100	–	> 100	> 100	–
C[C@]12CCc3sc(Nc4ccc(OC(F)(F)F)cc4)nc3C1=CC[C@@H]1[C@@H]2CC[C@]2(C)C(=O)CC[C@@H]12	1.87	6.64	3.03	10.3	1.09	3.26	1.45	3.28	–	–	4.31	25.1	1.93	4.44	3.21	13.2	1.69	4.1	4.56	2.14
COc1ccc2c(c1)OC1=C(C(=O)OC1)C2c1cc(OC)c2c(c1)OCCO2 (stereo unspecified)	0.0432	> 100	0.0456	> 100	0.0433	–	0.068	> 23.1	0.0478	> 31.9	0.0915	–	0.042	0.174	0.0411	> 100	0.0531	> 100	–	–
NC1=NN(c2ccccc2)C(=O)C1C(=O)CCC(=O)Nc1cccc(Cl)c1 (stereo unspecified)	–	> 100	–	> 100	–	> 100	–	> 100	–	> 100	–	–	–	> 100	–	> 100	–	> 100	> 100	–
CCOc1cc(C(C)(C)C)ccc1C1=N[C@H](c2ccc(Cl)cc2)[C@H](c2ccc(Cl)cc2)N1C(=O)N1CCN(CC#Cc2cccc3c2CN([C@@H]2CCC(=O)NC2=O)C3=O)CC1	2.66	> 100	0.673	14.7	5.47	> 47	1.32	42.8	1.97	> 36.3	4.87	> 100	–	–	0.215	9.59	0.301	> 53.5	> 77.3	6.59
NC(CCCC(N)P(=O)(O)O)P(=O)(O)O (stereo unspecified)	–	> 100	–	> 100	–	> 100	–	> 100	–	> 100	–	–	–	–	–	> 100	–	> 100	> 100	–
Nc1n[nH]c2cccc(C#Cc3cccc(NC(=O)c4cccc(C(F)(F)F)c4)c3)c12	0.19	11.1	2.54	11.4	5.32	17.2	3.03	8.74	0.855	4.61	5.69	17.6	0.875	4.55	–	–	2.92	13.6	18.1	4.42
